Drawing on patent publication US9376418B2, “Substituted pyridine spleen tyrosine kinase (SYK) inhibitors” (Merck Sharp & Dohme Corp., priority 2012, dated 2016), this text covers IC50 for 33 molecules.

This assay has as its target T1, recombinant human GST-SYK (Homo sapiens, UniProt P43405).
T1 construct: purchased Carna Biosciences 08-176
In words: Homogeneous Time-Resolved Fluorescence (HTRF) assay for the recombinant human Syk enzyme. Format: biochemical. The following applies: HTRF assay, recombinant human GST-SYK; IC50 given as class symbols; read-out: rhSYK Activity. The essentials:
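GST-hSYK ([…]) was preincubated with inhibitor (0.1% DMSO final) for 10 minutes at room temperature in 15 mM Tris-HCl pH 7.5, 0.01% tween 20, 2 mM DTT. Biotinylated peptide (250 nM), 5 mM magnesium and 25 μM ATP started a 45-minute room-temperature reaction, read by time-resolved fluorescence.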
On the technique in general: Time-resolved FRET reads energy transfer from a long-lived donor to a nearby acceptor.
For `Cc1cc(Nc2nccc(C(F)(F)F)n2)cc(-c2ccnc(N[C@@H](C)CO)c2)c1` [Example 15.48, (2S)-2-{[4-(3-methyl-5-{[4-(trifluoromethyl)pyrimidin-2-yl]amino}phenyl)pyridin-2-yl]amino}propan-1-ol], the IC50 is less than 100 nM.
For `Cc1cc(Nc2nccc(C(F)(F)F)n2)cc(-c2ccnc(N3CCC4(CCCC(=O)N4)CC3)c2)c1` [Example 15.25, 9-[4-(3-methyl-5-{[4-(trifluoromethyl)pyrimidin-2-yl]amino}phenyl)pyridin-2-yl]-1,9-diazaspiro[5.5]undecan-2-one] the value was 100 to 1000 nM; for `Cc1cc(Nc2nccc(C(F)(F)F)n2)cc(-c2cncc(C3(O)CCC(O)CC3)c2)c1` (stereo not drawn) [Example 9.76, 1-[5-(3-methyl-5-{[4-(trifluoromethyl)pyrimidin-2-yl]amino}phenyl)pyridin-3-yl]cyclohexane-1,4-diol], less than 100 nM; for `CNC(=O)Nc1cc(Nc2nccc(C(F)(F)F)n2)cc(-c2cccnc2)c1` [Example 6.1, 1-Methyl-3-[3-(pyridin-3-yl)-5-{[4-(trifluoromethyl)pyrimidin-2-yl]amino}phenyl]urea], less than 100 nM.
For `O=C(O)[C@@H]1CCN1c1ccc(-c2cccc(Nc3nccc(C(F)(F)F)n3)c2)cn1` [Example 7.126, (2S)-1-[5-(3-{[4-(trifluoromethyl)pyrimidin-2-yl]amino}phenyl)pyridin-2-yl]azetidine-2-carboxylic acid] the value was less than 100 nM; for `CNC(=O)CNC(=O)c1ccc(-c2cc(C)cc(Nc3nccc(C(F)(F)F)n3)c2)cn1` [Example 16.63, N-[2-(methylamino)-2-oxoethyl]-5-(3-methyl-5-{[4-(trifluoromethyl)pyrimidin-2-yl]amino}phenyl)pyridine-2-carboxamide], 100 to 1000 nM; for `CS(=O)(=O)c1ccc(-c2cccc(Nc3nccc(C(F)(F)F)n3)c2)nc1` [Example 2.6, N-{3-[5-(methylsulfonyl)pyridin-2-yl]phenyl}-4-(trifluoromethyl)pyrimidin-2-amine], 100 to 1000 nM.
Turning to `Oc1ccc(-c2cccc(Nc3nccc(C(F)(F)F)n3)c2)cn1` [Example 2.43, 5-(3-{[4-(trifluoromethyl)pyrimidin-2-yl]amino}phenyl)pyridin-2-ol], the IC50 was in the range of 100 to 1000 nM.
The value for `Cc1cc(Nc2nccc(C(F)(F)F)n2)cc(-c2ccnc(N[C@H]3CCC(=O)NC3)c2)c1` [Example 15.67, (5S)-5-{[4-(3-methyl-5-{[4-(trifluoromethyl)pyrimidin-2-yl]amino}phenyl)pyridin-2-yl]amino}piperidin-2-one] was less than 100 nM.
As for `Cc1cc(Nc2nccc(C(F)(F)F)n2)cc(-c2ccc(C(=O)NC3CCOC3)nc2)c1` (stereo not drawn) [Example 16.33, 5-(3-methyl-5-{[4-(trifluoromethyl)pyrimidin-2-yl]amino}phenyl)-N-(tetrahydrofuran-3-yl)pyridine-2-carboxamide], the IC50 was 100 to 1000 nM.
For `Cc1cc(Nc2nccc(C(F)(F)F)n2)cc(-c2cnc3c(c2)OCCN3)c1` [Example 2.52, N-[3-(3,4-dihydro-2H-pyrido[3,2-b][1,4]oxazin-7-yl)-5-methylphenyl]-4-(trifluoromethyl)pyrimidin-2-amine] the value was less than 100 nM; for `Cc1cc(Nc2nccc(C(F)(F)F)n2)cc(-c2ccc(C(C)(O)C(F)(F)F)nc2)c1` (stereo not drawn) [Example 2.115, 1,1,1-trifluoro-2-[5-(3-methyl-5-{[4-(trifluoromethyl)pyrimidin-2-yl]amino}phenyl)pyridin-2-yl]propan-2-ol], 100 to 1000 nM.
As for `Cc1cc(Nc2nccc(C3CC3)n2)cc(-c2ccc(CCC(=O)O)cn2)c1` [Example 2.40, 3-(6-{3-[(4-cyclopropylpyrimidin-2-yl)amino]-5-methylphenyl}pyridin-3-yl)propanoic acid], the IC50 is less than 100 nM.
For `Cc1cc(Nc2nccc(C(F)(F)F)n2)cc(-c2cncc(NCC3CC3)c2)c1` [Example 15.11] the value was less than 100 nM; for `Cc1cc(Nc2nccc(C(F)(F)F)n2)cc(-c2ccnc(N3CCC(C(N)=O)CC3)c2)c1` [Example 15.46, 1-[4-(3-methyl-5-{[4-(trifluoromethyl)pyrimidin-2-yl]amino}phenyl)pyridin-2-yl]piperidine-4-carboxamide], less than 100 nM; for `Cc1cc(Nc2nccc(C(F)(F)F)n2)cc(-c2ccnc(N3CCN(C(=O)c4ccc5cc[nH]c5c4)CC3)c2)c1` [Example 15.39, N-(3-{2-[4-(1H-indol-6-ylcarbonyl)piperazin-1-yl]pyridin-4-yl}-5-methylphenyl)-4-(trifluoromethyl)pyrimidin-2-amine], 100 to 1000 nM.
In the case of `CNC(=O)CCNc1ccc(-c2cc(C)cc(Nc3nccc(C(F)(F)F)n3)c2)cn1` [Example 7.62, N-methyl-N~3~-[5-(3-methyl-5-{[4-(trifluoromethyl)pyrimidin-2-yl]amino}phenyl)pyridin-2-yl]-beta-alaninamide], the IC50 is less than 100 nM.
The value for `Cc1cc(Nc2ncc(F)c(C3CC3)n2)cc(-c2ccc(N3CC[C@H]3C(=O)O)nc2)c1` [Example 7.161, (2S)-1-(5-{3-[(4-cyclopropyl-5-fluoropyrimidin-2-yl)amino]-5-methylphenyl}pyridin-2-yl)azetidine-2-carboxylic acid] was less than 100 nM; that for `Cc1cc(Nc2nccc(C(F)(F)F)n2)cc(-c2ccc(C(=O)NS(C)(=O)=O)nc2)c1` [Example 16.1, N-(methylsulfonyl)-5-(3-methyl-5-{[4-(trifluoromethyl)pyrimidin-2-yl]amino}phenyl)pyridine-2-carboxamide] was less than 100 nM; that for `Cc1cc(Nc2nccc(C(F)(F)F)n2)cc(-c2ccc(N3CCCC4(CCCO4)C3)nc2)c1` (stereo not drawn) [Example 7.11, N-{3-methyl-5-[6-(1-oxa-7-azaspiro[4.5]dec-7-yl)pyridin-3-yl]phenyl}-4-(trifluoromethyl)pyrimidin-2-amine] was 100 to 1000 nM.
The value for `Cc1cc(Nc2nccc(C(F)(F)F)n2)cc(-c2ccc(C(=O)N3CCC(C)(O)C3)nc2)c1` (stereo not drawn) [Example 16.42, 3-methyl-1-{[5-(3-methyl-5-{[4-(trifluoromethyl)pyrimidin-2-yl]amino}phenyl)pyridin-2-yl]carbonyl}pyrrolidin-3-ol] was less than 100 nM; that for `Cc1cc(Nc2nccc(C(F)(F)F)n2)cc(-c2ccc(N3CCC[C@H]3C(N)=O)nc2)c1` [Example 7.57, 1-[5-(3-methyl-5-{[4-(trifluoromethyl)pyrimidin-2-yl]amino}phenyl)pyridin-2-yl]-L-prolinamide] was less than 100 nM.
For `Cc1cc(Nc2nccc(C(F)(F)F)n2)cc(-c2ccc(C(=O)NS(N)(=O)=O)nc2)c1` [Example 16.2] the value was less than 100 nM.
In the case of `CCCOC1CCCN(c2cc(-c3cc(C)cc(Nc4nccc(C(F)(F)F)n4)c3)ccn2)C1` (stereo not drawn) [Example 15.79, N-{3-methyl-5-[2-(3-propoxypiperidin-1-yl)pyridin-4-yl]phenyl}-4-(trifluoromethyl)pyrimidin-2-amine], the IC50 is 1000 to 10000 nM.
The value for `Cc1cc(Nc2nccc(C)n2)cc(-c2cncc(C(O)(CO)CO)c2)c1` [Example 9.75, 2-(5-{3-methyl-5-[(4-methylpyrimidin-2-yl)amino]phenyl}pyridin-3-yl)propane-1,2,3-triol] was 100 to 1000 nM.
Regarding `COC1CN(C(=O)c2ccc(-c3cc(C)cc(Nc4nccc(C(F)(F)F)n4)c3)cn2)C1` [Example 16.34, N-(3-{6-[(3-methoxyazetidin-1-yl)carbonyl]pyridin-3-yl}-5-methylphenyl)-4-(trifluoromethyl)pyrimidin-2-amine], the IC50 was in the range of 100 to 1000 nM.
The value for `Cc1cc(Nc2nccc(C(F)(F)F)n2)cc(-c2cnc(O)c(N)c2C)c1` [Example 2.51, 3-amino-4-methyl-5-(3-methyl-5-{[4-(trifluoromethyl)pyrimidin-2-yl]amino}phenyl)pyridin-2-ol] was 100 to 1000 nM.
Turning to `Cc1cc(Nc2nccc(C(F)(F)F)n2)cc(-c2ccc(N3CC[C@H](O)[C@H]3C(=O)O)nc2)c1` [Example 7.134, (3S)-3-hydroxy-1-[5-(3-methyl-5-{[4-(trifluoromethyl)pyrimidin-2-yl]amino}phenyl)pyridin-2-yl]-L-proline], the IC50 is less than 100 nM.
The value for `CNC(=O)C1CCN(c2cc(-c3cc(C)cc(Nc4nccc(C(F)(F)F)n4)c3)ccn2)CC1` [Example 15.58, N-methyl-1-[4-(3-methyl-5-{[4-(trifluoromethyl)pyrimidin-2-yl]amino}phenyl)pyridin-2-yl]piperidine-4-carboxamide] was 100 to 1000 nM; that for `Cc1cc(Nc2nccc(C(F)(F)F)n2)cc(-c2cncc(C3(O)CCC(C(=O)O)C3)c2)c1` (stereo not drawn) [Example 9.67, 3-hydroxy-3-[5-(3-methyl-5-{[4-(trifluoromethyl)pyrimidin-2-yl]amino}phenyl)pyridin-3-yl]cyclopentanecarboxylic acid] was less than 100 nM.
For `Cc1cc(Nc2nccc(C(F)(F)F)n2)cc(-c2ccc(NC(C)(C)c3nc(=O)o[nH]3)nc2)c1` [Example 18.10, 3-(2-{[5-(3-Methyl-5-{[4-(trifluoromethyl)pyrimidin-2-yl]amino}phenyl)pyridin-2-yl]amino}propan-2-yl)-1,2,4-oxadiazol-5(4H)-one] the value was less than 100 nM; for `CC(=O)c1ccc(-c2cc(C)cc(Nc3nccc(C(F)(F)F)n3)c2)cn1` [Example 2.113, 1-[5-(3-methyl-5-{[4-(trifluoromethyl)pyrimidin-2-yl]amino}phenyl)pyridin-2-yl]ethanone], 100 to 1000 nM; for `CC(=O)NCCCNc1ccc(-c2cc(C)cc(Nc3nccc(C(F)(F)F)n3)c2)cn1` [Example 7.64, N-(3-{[5-(3-methyl-5-{[4-(trifluoromethyl)pyrimidin-2-yl]amino}phenyl)pyridin-2-yl]amino}propyl)acetamide], less than 100 nM.
